From ChEMBL document CHEMBL1201862, “PubChem BioAssay data set” (2004)
The source made the active and inactive calls.

Experiments:
[1] = molecular target: Peroxisome proliferator-activated receptor gamma/Nuclear receptor coactivator 3 (Homo sapiens, UniProt P37231); assay type: functional;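 also: agonist potency for raising coactivator recruitment to the receptor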
[2] = molecular target: Peroxisome proliferator-activated receptor gamma/Nuclear receptor coactivator 1 (Homo sapiens, UniProt P37231); assay type: functional;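 also: agonist potency as compounds enhance coactivator SRC-1 recruitment to PPARgamma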
[3] = molecular target: Peroxisome proliferator-activated receptor gamma/Nuclear receptor coactivator 2 (Homo sapiens, UniProt P37231); assay type: functional;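 also: agonist potency for raising coactivator recruitment to the receptor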
[4] = molecular target: Glyceraldehyde-3-phosphate dehydrogenase (Homo sapiens, UniProt P04406)
[5] = molecular target: T1, Alkaline phosphatase, tissue-nonspecific isozyme (Homo sapiens, UniProt P05186); experiment: potency against alkaline phosphatase TNAP – biochemical, luminescent, dose response, SAR follow-up (AID 1056)
T1 sequence (P05186 whole entry): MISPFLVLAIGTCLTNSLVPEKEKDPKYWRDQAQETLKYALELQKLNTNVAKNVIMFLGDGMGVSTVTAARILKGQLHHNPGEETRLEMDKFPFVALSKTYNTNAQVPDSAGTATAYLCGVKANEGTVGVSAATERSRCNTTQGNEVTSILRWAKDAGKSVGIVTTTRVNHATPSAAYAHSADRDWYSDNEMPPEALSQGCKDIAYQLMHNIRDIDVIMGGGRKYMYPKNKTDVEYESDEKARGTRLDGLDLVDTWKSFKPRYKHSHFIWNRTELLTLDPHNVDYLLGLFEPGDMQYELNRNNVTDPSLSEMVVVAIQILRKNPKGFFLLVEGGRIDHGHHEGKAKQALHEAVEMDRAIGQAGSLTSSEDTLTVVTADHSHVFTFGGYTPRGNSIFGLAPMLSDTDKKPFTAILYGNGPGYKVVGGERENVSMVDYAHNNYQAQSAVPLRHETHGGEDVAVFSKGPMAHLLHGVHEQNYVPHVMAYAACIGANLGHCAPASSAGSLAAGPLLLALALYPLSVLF

Beta-galactosidase [6] = molecular target: T2, Beta-galactosidase (Escherichia coli, UniProt Q8VNN2); experiment: detection-enzyme interference by beta-gal modulators – biochemical, E. coli enzyme, set 3, artefact control for CCR6 antagonist project, dose response (AID 504712); assay type: functional
[7] = molecular target: T3, Heat shock factor protein 1 (Mus musculus, UniProt P38532); experiment: decrease of HSF1-responsive luciferase luminescence – cell-based, NIH3T3, dose retest, confirmation (AID 2382); assay type: functional;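 also: NIH3T3 fibroblasts with HSF1-driven luciferase reporter stressed by proteasome inhibitor MG132; luminescence from HSF1-driven luciferase expression after 8 hours of MG132 stress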
T3 sequence (P38532 whole entry): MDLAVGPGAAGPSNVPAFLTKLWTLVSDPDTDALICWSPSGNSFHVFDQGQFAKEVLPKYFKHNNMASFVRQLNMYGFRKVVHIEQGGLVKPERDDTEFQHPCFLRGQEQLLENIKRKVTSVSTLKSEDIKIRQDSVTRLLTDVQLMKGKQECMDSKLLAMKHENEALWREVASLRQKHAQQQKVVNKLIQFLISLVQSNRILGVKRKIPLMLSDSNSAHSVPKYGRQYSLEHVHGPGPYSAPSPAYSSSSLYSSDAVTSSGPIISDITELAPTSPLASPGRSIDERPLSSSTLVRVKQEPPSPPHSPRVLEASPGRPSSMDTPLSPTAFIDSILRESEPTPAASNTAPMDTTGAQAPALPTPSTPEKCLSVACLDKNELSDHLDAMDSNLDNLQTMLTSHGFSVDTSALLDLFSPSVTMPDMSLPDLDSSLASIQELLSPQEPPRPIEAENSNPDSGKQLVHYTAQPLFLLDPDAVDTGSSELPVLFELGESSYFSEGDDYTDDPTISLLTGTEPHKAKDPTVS

[8] = Counterscreen for IDE inhibitors: Luminescence-based cell-based high throughput dose response assay to identify compounds that are cytotoxic to HEK cells. [Related pubchem assays: 434962 (Primary screen (IDE inhibitors in singlicate)), 449730 (Counterscreen (Cytotoxicity in triplicate)), 435028 (Confirmation (IDE inhibitors in triplicate)) …; assay type: functional; conditions: HEK293
Insulin-degrading enzyme = molecular target: T4, Insulin-degrading enzyme (Homo sapiens, UniProt P14735); experiment: Dose Response: Fluorescence polarization-based cell-based high throughput dose response assay for inhibitors of insulin-degrading enzyme (IDE). [Related pubchem assays: 434962 (Primary screen (IDE inhibitors in singlicate)), 449730 (Counterscreen (Cytotoxicity in triplicate)), 435028 (Confirmation (IDE inhibitors in triplicate)), 434984 (Summary …; assay type: functional
T4 sequence (P14735 whole entry): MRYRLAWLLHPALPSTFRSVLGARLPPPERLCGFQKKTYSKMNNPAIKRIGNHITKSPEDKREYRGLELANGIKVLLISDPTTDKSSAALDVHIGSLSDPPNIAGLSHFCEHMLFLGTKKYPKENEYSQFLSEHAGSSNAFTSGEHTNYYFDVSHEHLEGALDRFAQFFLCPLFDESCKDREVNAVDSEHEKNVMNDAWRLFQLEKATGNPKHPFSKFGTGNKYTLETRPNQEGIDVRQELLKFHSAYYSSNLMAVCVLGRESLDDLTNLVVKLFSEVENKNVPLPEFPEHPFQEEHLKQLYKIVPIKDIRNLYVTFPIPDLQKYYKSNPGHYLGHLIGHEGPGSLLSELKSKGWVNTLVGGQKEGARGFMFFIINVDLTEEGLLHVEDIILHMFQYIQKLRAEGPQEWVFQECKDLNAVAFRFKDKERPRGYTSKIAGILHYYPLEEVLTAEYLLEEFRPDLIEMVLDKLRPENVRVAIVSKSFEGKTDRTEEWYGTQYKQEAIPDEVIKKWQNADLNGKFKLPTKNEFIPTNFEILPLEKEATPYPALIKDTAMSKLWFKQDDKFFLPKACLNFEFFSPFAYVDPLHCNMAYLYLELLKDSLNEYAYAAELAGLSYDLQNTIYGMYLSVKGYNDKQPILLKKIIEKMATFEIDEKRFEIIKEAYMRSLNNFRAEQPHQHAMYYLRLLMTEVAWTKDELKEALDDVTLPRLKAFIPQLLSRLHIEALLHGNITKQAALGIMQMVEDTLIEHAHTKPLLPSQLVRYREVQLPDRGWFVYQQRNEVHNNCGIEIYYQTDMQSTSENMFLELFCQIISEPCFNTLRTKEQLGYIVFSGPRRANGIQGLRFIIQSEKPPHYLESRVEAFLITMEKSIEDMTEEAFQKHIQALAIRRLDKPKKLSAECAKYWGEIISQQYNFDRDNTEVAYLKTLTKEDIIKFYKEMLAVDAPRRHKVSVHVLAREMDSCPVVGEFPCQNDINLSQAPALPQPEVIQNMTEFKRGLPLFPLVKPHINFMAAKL

[9] = molecular target: T5, Kappa-type opioid receptor (Homo sapiens, UniProt P41145); assay type: functional
[10] = molecular target: T5, Kappa-type opioid receptor; assay type: functional; remark: listed apart in the source
Beta-galactosidase [11] = molecular target: T2, Beta-galactosidase; assay type: functional
[12] = molecular target: Alkaline phosphatase, placental type (Homo sapiens, UniProt P05187); experiment: human placental alkaline phosphatase inhibition – biochemical, luminescence, confirmation (AID 1512); assay type: functional
[13] = molecular target: G-protein coupled receptor 55 (Homo sapiens, UniProt Q9Y2T6); experiment: selective activators of receptor GPR55 – imaging, U2OS cells, beta-arrestin-GFP redistribution, primary screen (AID 1961); assay type: functional
Hexokinase = molecular target: T6, Hexokinase (Trypanosoma brucei, UniProt Q38C41); experiment: Confirmation assay for inhibitors of Trypanosoma brucei hexokinase 1-Analogue-first series. [Related pubchem assays (depositor defined):AID1430, AID1632, AID2516, AID2560, AID2579, AID2600, AID449725, AID492951]; assay type: functional
T6 sequence (Q38C41 whole entry): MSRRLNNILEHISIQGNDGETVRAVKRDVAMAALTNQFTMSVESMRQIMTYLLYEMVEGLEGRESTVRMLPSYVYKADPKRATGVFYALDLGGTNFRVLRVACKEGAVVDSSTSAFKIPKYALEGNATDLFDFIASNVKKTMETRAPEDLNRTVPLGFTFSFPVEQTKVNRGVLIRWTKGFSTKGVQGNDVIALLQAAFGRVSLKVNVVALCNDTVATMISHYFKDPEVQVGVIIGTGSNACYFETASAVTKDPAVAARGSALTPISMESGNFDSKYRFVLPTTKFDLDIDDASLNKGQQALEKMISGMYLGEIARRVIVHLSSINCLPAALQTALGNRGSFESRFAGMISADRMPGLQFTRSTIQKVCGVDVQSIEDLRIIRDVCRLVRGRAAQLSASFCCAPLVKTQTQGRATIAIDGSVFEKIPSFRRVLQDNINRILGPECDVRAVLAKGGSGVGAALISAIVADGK

[14] = molecular target: Nucleotide-binding oligomerization domain-containing protein 2 (Homo sapiens, UniProt Q9HC29); experiment: PubChem AID 2334; assay type: functional
Tumor necrosis factor = Tumor necrosis factor (Homo sapiens, UniProt P01375); experiment: analog potency on TNFa NF-kB signaling – cell-based, revised, SAR follow-up (AID 2337); assay type: functional
[15] = molecular target: T7, Nucleotide-binding oligomerization domain-containing protein 1 (Homo sapiens, UniProt Q9Y239); experiment: blockers of NOD1 pathway activity – revised, SAR follow-up (AID 2333); assay type: functional
T7 sequence (Q9Y239 whole entry): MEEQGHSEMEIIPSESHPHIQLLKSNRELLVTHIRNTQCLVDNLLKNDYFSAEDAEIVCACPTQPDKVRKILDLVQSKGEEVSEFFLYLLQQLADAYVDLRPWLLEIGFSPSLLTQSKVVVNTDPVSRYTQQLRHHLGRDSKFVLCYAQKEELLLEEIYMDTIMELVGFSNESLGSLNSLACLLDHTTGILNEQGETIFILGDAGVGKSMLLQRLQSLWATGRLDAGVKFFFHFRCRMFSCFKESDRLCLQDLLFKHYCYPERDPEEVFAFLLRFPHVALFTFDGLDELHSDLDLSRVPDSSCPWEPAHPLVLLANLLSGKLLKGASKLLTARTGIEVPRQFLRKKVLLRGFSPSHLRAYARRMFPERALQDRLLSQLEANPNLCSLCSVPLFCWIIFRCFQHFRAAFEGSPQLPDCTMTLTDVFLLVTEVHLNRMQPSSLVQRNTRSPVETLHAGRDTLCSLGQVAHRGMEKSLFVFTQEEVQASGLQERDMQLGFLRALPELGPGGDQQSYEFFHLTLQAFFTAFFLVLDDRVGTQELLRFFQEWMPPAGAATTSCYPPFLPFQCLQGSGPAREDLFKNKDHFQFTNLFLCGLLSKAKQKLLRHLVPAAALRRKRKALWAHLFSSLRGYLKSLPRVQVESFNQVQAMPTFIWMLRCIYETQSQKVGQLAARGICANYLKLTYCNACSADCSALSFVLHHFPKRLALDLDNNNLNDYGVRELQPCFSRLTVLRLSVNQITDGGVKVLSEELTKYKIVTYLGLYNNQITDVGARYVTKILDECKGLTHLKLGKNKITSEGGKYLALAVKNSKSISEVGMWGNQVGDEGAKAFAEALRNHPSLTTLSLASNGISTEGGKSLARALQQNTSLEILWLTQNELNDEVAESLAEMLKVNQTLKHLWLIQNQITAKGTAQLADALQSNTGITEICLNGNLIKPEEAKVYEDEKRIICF

HEK293 = experiment: cells; conditions: Homo sapiens;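 also: cells exposed to compound for 14 hours overnight before viability readout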

Sequence of Nucleotide-binding oligomerization domain-containing protein 2 (Q9HC29 whole entry, the tested form may be a part): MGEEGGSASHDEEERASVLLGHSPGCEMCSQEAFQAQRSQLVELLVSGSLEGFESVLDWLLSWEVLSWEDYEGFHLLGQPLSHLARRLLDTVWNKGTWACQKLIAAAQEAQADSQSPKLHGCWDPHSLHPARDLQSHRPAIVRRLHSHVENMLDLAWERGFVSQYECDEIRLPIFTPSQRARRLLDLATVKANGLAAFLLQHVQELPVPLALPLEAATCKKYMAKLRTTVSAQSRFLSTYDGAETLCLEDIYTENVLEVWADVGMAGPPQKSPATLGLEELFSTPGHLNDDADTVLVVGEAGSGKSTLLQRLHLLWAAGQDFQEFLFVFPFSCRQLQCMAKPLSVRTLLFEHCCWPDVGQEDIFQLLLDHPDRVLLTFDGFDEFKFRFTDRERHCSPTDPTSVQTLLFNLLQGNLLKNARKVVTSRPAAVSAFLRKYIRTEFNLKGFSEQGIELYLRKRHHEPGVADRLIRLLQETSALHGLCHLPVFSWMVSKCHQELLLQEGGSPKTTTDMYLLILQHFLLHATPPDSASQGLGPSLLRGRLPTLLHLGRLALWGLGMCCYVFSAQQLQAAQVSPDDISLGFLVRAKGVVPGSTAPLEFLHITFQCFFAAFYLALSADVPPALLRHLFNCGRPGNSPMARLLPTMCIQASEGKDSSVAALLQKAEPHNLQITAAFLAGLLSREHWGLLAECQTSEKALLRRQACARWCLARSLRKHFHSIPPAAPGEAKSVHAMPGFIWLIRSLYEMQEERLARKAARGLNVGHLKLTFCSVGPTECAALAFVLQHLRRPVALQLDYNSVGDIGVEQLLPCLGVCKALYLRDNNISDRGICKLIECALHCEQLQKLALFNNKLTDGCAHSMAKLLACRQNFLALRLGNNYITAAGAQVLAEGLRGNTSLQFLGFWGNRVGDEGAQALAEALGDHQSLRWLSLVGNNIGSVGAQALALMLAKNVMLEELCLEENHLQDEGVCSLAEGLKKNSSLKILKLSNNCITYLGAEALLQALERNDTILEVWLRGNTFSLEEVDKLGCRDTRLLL
Sequence of Tumor necrosis factor (P01375 whole entry, the tested form may be a part): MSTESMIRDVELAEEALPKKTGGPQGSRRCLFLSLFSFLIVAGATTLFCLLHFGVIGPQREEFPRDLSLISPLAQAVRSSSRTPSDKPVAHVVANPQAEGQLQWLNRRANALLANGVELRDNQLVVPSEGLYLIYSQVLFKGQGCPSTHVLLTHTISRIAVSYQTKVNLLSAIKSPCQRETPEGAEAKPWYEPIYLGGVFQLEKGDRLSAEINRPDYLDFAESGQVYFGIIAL
Sequence of G-protein coupled receptor 55 (Q9Y2T6 whole entry): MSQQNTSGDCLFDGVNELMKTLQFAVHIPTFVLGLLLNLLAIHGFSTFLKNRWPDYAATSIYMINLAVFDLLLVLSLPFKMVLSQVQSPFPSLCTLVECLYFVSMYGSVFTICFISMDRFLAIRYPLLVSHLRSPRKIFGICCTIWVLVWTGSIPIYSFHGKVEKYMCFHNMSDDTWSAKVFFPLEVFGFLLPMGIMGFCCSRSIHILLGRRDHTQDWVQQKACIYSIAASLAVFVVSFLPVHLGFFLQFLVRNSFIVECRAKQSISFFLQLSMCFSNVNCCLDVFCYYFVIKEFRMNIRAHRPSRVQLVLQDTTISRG
Sequence of Glyceraldehyde-3-phosphate dehydrogenase (P04406 whole entry): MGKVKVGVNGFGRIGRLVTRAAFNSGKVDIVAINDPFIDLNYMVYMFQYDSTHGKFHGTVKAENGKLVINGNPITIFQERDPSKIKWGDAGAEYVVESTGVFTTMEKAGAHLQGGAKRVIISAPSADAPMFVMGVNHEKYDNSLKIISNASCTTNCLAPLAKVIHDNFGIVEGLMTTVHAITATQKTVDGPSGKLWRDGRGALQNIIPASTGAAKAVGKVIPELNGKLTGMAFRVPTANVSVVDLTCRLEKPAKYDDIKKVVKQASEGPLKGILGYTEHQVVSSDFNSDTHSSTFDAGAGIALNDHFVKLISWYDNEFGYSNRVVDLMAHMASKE
T2 sequence (Q8VNN2 whole entry): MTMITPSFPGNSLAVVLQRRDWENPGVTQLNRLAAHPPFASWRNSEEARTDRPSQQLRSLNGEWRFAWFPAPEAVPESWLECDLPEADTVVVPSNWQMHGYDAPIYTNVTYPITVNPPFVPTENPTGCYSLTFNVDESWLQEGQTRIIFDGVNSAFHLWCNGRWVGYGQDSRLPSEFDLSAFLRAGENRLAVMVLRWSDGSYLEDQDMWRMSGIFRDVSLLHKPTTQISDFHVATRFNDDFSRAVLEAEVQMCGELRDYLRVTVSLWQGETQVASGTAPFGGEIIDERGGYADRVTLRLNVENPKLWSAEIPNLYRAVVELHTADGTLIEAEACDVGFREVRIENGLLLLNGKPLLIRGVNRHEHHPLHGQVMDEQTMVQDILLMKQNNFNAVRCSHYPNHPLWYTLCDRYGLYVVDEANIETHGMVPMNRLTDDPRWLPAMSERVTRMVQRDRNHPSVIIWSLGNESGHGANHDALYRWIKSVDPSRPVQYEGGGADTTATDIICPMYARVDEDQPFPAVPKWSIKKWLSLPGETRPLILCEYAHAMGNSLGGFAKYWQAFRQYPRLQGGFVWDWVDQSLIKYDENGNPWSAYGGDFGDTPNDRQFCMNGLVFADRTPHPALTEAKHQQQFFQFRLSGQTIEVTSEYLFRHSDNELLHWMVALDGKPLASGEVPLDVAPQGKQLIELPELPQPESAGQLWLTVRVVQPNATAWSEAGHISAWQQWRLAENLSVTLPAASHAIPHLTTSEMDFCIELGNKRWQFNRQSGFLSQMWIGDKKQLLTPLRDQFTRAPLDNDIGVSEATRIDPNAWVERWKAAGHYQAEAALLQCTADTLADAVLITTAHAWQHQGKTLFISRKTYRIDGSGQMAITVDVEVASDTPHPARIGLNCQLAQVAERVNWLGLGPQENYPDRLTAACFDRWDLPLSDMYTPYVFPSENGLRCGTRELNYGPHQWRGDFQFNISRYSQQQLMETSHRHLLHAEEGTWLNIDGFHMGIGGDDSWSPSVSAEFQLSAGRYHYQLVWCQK
T5 sequence (P41145 whole entry): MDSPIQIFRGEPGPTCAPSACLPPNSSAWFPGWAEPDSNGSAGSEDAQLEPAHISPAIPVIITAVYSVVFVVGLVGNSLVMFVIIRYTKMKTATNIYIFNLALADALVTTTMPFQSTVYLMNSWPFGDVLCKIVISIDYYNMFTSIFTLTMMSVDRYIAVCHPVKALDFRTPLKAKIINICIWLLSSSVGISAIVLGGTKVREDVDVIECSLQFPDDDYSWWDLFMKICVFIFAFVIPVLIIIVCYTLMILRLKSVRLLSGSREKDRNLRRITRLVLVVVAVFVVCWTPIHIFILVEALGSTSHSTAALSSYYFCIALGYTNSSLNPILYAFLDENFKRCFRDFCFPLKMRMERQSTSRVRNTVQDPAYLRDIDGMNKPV
Sequence of Alkaline phosphatase, placental type (P05187 whole entry): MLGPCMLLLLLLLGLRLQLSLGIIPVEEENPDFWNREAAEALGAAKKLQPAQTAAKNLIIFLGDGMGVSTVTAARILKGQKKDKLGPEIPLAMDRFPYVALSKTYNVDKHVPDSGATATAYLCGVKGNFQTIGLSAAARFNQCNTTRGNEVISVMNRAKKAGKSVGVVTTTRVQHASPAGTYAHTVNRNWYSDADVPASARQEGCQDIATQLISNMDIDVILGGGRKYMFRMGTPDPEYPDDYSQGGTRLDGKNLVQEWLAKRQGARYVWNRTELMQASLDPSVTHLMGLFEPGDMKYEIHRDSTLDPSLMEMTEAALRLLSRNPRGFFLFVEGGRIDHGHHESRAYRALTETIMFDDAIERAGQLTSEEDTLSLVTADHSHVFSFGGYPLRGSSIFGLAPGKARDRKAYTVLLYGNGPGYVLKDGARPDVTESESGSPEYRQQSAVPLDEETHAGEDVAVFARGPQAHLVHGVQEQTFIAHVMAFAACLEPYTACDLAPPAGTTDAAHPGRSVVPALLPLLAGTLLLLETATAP

O=S(=O)(c1ccccc1)c1nc(-c2ccco2)oc1N1CCOCC1
EC50 [1]: > 79.4 µM (not active)
EC50 [2]: 85.1 µM (not active)
EC50 [3]: > 79.4 µM (not active)

Cc1cc(C)c(S(=O)(=O)Nc2cnc3ccccc3c2)c(C)c1
IC50 [4]: > 100 µM (not active)
IC50 [5]: > 100 µM (inactive)

O=C(Cc1ccccc1)Nc1cccc(N2C(=O)C=CC2=O)c1
IC50 (Beta-galactosidase [6]): > 66.6 µM (inactive)
EC50 [7]: 19 µM (active)

O=C(c1ccco1)N1CCN(c2ccnc3cc(Cl)ccc23)CC1
IC50 [8]: 18.2 µM (not active)
IC50 (Insulin-degrading enzyme): > 18.6 µM (not active)

O=C1/C(=C\c2ccc(O)cc2)SC(=S)N1c1cccnc1
IC50 [9]: > 32 µM
IC50 [10]: 11.4 µM (active)
EC50 (Beta-galactosidase [11]): 14.6 µM (active)

O=C(c1cc(-c2cc(F)c(Cl)cc2Cl)n[nH]1)N1CCOCC1
IC50 [4]: > 100 µM (not active)
IC50 [12]: > 100 µM (inactive)
IC50 [5]: 3.37 µM (active)

COc1ccccc1Cn1c(SCC(=O)C(C)(C)C)nc2cc(C(=O)N3CCC4(CC3)OCCO4)ccc2c1=O
EC50 [13]: 4.58 µM (active)

CN1/C(=C\C(=O)COC(=O)c2ccccc2O)C(C)(C)c2ccccc21
EC50 [13]: 1.67 µM (active)

O=c1c2ccccc2[s+]([O-])n1-c1cccc(F)c1 (stereo not drawn)
IC50 (Hexokinase): > 25 µM (inactive)

CCOc1ccc(C(=O)NC2CCCc3c2cnn3-c2ccccc2F)cc1 (stereo not drawn)
IC50 [14]: 18.5 µM (active)
IC50 (Tumor necrosis factor): > 20 µM (inactive)
IC50 [15]: 12.8 µM (active)
IC50 (HEK293): > 20 µM (inactive)

COc1ccc(C(=O)Nc2cc(F)ccc2C(=O)O)cc1
IC50 (Hexokinase): 24.8 µM (active)

COc1ccccc1CNC(=O)c1oc2ccccc2c1C
EC50 [13]: 3.85 µM (active)

CCc1cc(C(=O)NC2CCCc3c2cnn3-c2ccccc2F)no1 (stereo not drawn)
IC50 [14]: > 20 µM (inactive)
IC50 (Tumor necrosis factor): > 20 µM (inactive)
IC50 [15]: 17.5 µM (active)
IC50 (HEK293): > 20 µM (inactive)

Cn1nccc1C(=O)N[C@H]1CCCc2c1cnn2-c1ccccc1F
IC50 [14]: 1.12 µM (active)
IC50 (Tumor necrosis factor): 0.994 µM (active)
IC50 [15]: 0.781 µM (active)
IC50 (HEK293): > 20 µM (inactive)

COc1ccc2sn(-c3ccccc3)c(=O)c2c1
IC50 (Hexokinase): 3.22 µM (active)
